The results in this text go back to patent US20210267979A1, “THERAPEUTIC AGENT FOR TREATING DIFFUSE GASTRIC CANCER” (KANAZAWA MEDICAL UNIVERSITY, priority 2018, published 2021).

Where two headings read alike, the source gives them in different places.

The test system of assay [1] is NUGC4. Kind of assay: Cell proliferation of diffuse gastric cancer cell strain NUGC4 (Cell Counting Kit-8). It counts as cell-based. Particulars: for Inhibitory effect on HGF induced, amphiregulin induced and base line cell proliferation: single agent, 0.001 to 10 micro M; for IC50: Homo sapiens, 72 hours. Here is the method:
(§1) Each diffuse gastric cancer cell strain of NUGC4 (obtained from Health Science Research Resources Bank (Osaka, Japan)) and GCIY (obtained from Riken BioResource Research Center (Tsukuba, Japan)) was cultured and passaged in an RPMI1640 culture medium containing 10% fetal calf serum, 100 units/mL penicillin, and […] streptomycin antibiotic, and was used for the following experiments. Mycoplasma infection of cultured cells was regularly checked by MycoAlert Mycoplasma Detection kit (Lonza).
(§2) Cell proliferation was measured by Cell Counting Kit-8 (CCK-8) (Dojindo Laboratories, Kumamoto, Japan) (M. Ishiyama, et al., Talenta 44; 1299: 1997). Cells were seeded at 100 micro L/well at a concentration of 5×10^4 cells/mL and were cultured in an incubator at 37° C. for 24 hours. To each well, HGF (R&D systems) (50 ng/mL) or amphiregulin (R&D Systems (Minneapolis, Minn.)) (100 ng/mL) and trametinib (Selleck Chemicals (Houston, Tex.)) (0.001 to 10 micro M) were then added, and the cells were further cultured in an incubator at 37° C. for 72 hours. To each well, 10 micro L of a WST-solution was added, which was incubated at 37° C. for 4 hours. Absorbance was measured at a wavelength of 450 nm by a microplate reader (BIO-RAD Laboratories, Inc.). A similar experiment was repeated three times in triplets.
Background: Formazan colour is commonly taken as a measure of viable cells.

Assay [2] deals with NUGC4. Described as above. The class given is cell-based. Particulars: for IC50: Homo sapiens.
A further assay has as its system MKN7. The experiment in a line: Cell proliferation of non-diffuse gastric cancer cells MKN7 (Cell Counting Kit-8). It counts as cell-based, Human. Particulars: for IC50: Homo sapiens, MKN-7, MKN7. Here is the method: as §2
(§3) Effects of trametinib on proliferation of non-diffuse gastric cancer cell were examined by the similar method to that in Example 1.
(§4) Human non-diffuse, well-differentiated gastric cancer cells used were MKN7 (Health Science Research Resources Bank (Osaka, Japan)) and GCR1 (Cancer Research Institute, Kanazawa University).

The test system of another assay is GCIY. Kind of assay: Cell proliferation of diffuse gastric cancer cell strain GCIY (Cell Counting Kit-8). It counts as cell-based. Particulars: for IC50: Homo sapiens. As to the method: as §1, §2
The next assay has as its system MKN45. The experiment in a line: Cell proliferation of cMet gene-amplified gastric cancer cell strain MKN45 (Cell Counting Kit-8). It counts as cell-based. Particulars: Homo sapiens. Here is the method: as §2
Effects of trametinib on proliferation of cMet gene-amplified gastric cancer cell were examined by the similar method to that in Example 1.
As the cMet gene-amplified gastric cancer cells, cMet gene-amplified gastric cancer cell strain MKN45 (Health Science Research Resources Bank (Osaka, Japan)) was used.

The subject of another assay is GCR1. Kind of assay: Cell proliferation of non-diffuse gastric cancer cells GCR1 (Cell Counting Kit-8). Particulars: Homo sapiens. The class given is cell-based. Here is the method:
as §2, §3, §4

For another assay, the system named is NUGC4 cells. Kind of assay: Survival of Balb/c nu/nu mice intraperitoneally transplanted with diffuse gastric cancer cells. Particulars: NUGC4 intraperitoneal transplant; oral administration from day 21 for 4 weeks, then 4 weeks observation; control mice all died within 7 weeks. It counts as in vivo, Balb/c nu/nu mouse.
[3] abbreviates: HGF induced, combined with everolimus 1 micro M, read-out: Trametinib IC50 (micro M) HGF.
Where [4] appears, read: amphiregulin induced, combined with everolimus 1 micro M, read-out: Trametinib IC50 (micro M) amphiregulin.
The mark [5] stands for this setting: base line, Example 5, combined use with everolimus 1 micro M, read-out: Trametinib IC50 (micro M) Base line.
Where [6] appears, read: HGF induced proliferation, read-out: Trametinib IC50 (micro M) HGF.
The mark [7] stands for this setting: amphiregulin induced proliferation, read-out: Trametinib IC50 (micro M) amphiregulin.
Where [8] appears, read: without HGF or amphiregulin, read-out: Trametinib IC50 (micro M) Base line.

Protocol for NUGC4 cells: To a Balb/c nu/nu mouse (6 weeks old), diffuse gastric cancer cells (NUGC4 cells, 2×10^6 cells in 200 micro L PBS) were transplanted by intraperitoneal administration. On 21 days after transplantation, ascites was observed, and oral administration was started with trametinib (0.1 mg/kg body weight or 0.3 mg/kg body weight), everolimus (1.5 mg/kg body weight), combined use of trametinib (0.1 mg/kg body weight) and everolimus (1 mg/kg body weight), combined use of trametinib (0.1 mg/kg body weight) and everolimus (1 mg/kg body weight), combined use of trametinib (0.3 mg/kg) and everolimus (1 mg/kg), or combined use of trametinib (0.3 mg/kg body weight) and everolimus (5 mg/kg body weight). Each of the trametinib and the everolimus was dissolved in a solution (7% DMSO, 13% Tween80, 80% Otsuka glucose injection (5%), HCl equimolar to each compound). To a control group, only a solution containing no medicinal agent was administered. Administration was continued for 4 weeks, followed by observation for the following 4 weeks without administration of the medicinal agent.

In the case of `Cc1cc(NC(=O)c2cccc(NC(=O)/C=C/CN(C)C)c2)ccc1Nc1nccc(-c2cccnc2)n1` [JNK-IN-8], the “Inhibitory effect on HGF induced, amphiregulin induced and base line cell proliferation” value with NUGC4 [1] was “did not exhibit obvious inhibitory effects”.
For `O=C(NOC[C@H](O)CO)c1ccc(F)c(F)c1Nc1ccc(I)cc1F` [PD0325901], the “Proliferation inhibitory effect of combined use of PD0325901 and temsirolimus” value in the assay on NUGC4 [2] (temsirolimus 1 micro M) is given as “synergistically improved by addition of temsirolimus”; in the assay on MKN7 (MKN7, temsirolimus 1 micro M), “no combined effect was exhibited”.
By IC50 is commonly meant the concentration that inhibits the measured activity by half. For `CC(=O)Nc1cccc(-n2c(=O)n(C3CC3)c(=O)c3c(Nc4ccc(I)cc4F)n(C)c(=O)c(C)c32)c1` [Trametinib, trametinib], the IC50 stood at 100 nM in the assay with GCIY (HGF 50 ng/mL induced proliferation, 72 hours, read-out: Trametinib IC50 (micro M) HGF); 100 nM in the assay on GCIY (setting [3]); 10000 nM with GCIY (amphiregulin 100 ng/mL induced proliferation, 72 hours, read-out: Trametinib IC50 (micro M) amphiregulin); 300 nM in the assay with GCIY (setting [4]); 30 nM with GCIY (setting [5]); 100 nM in the assay with GCIY (without HGF and AP, 72 hours, read-out: Trametinib IC50 (micro M) Base line). The IC50 was 100 nM with NUGC4 [1] (NUGC-4, HGF 50 ng/mL induced proliferation, read-out: Trametinib IC50 (micro M) HGF); 300 nM with NUGC4 [1] (NUGC-4, amphiregulin 100 ng/mL induced proliferation, read-out: Trametinib IC50 (micro M) amphiregulin); at most 1 nM in the assay with NUGC4 [1] (NUGC-4, without HGF and AP, read-out: Trametinib IC50 (micro M) Base line); 10 nM with NUGC4 [2] (NUGC-4, HGF induced, combined with everolimus 1 micro M, read-out: Trametinib IC50 (micro M) HGF); 30 to 100 nM in the assay on NUGC4 [2] (NUGC-4, amphiregulin induced, combined with everolimus 1 micro M, read-out: Trametinib IC50 (micro M) amphiregulin); at most 1 nM in the assay on NUGC4 [2] (NUGC-4, base line, Example 5, combined use with everolimus 1 micro M, read-out: Trametinib IC50 (micro M) Base line). Besides, the IC50 with MKN45 (MKN-45, HGF added, read-out: Trametinib IC50 (micro M) HGF) was found to be 1 nM; with MKN45 (MKN-45, amphiregulin added, read-out: Trametinib IC50 (micro M) amphiregulin) it was 1 nM; in the assay on MKN45 (MKN-45, without HGF and AP, read-out: Trametinib IC50 (micro M) Base line), 1 nM; with GCR1 (setting [6]), 100 nM; in the assay on GCR1 (setting [3]), 100 nM; with GCR1 (setting [7]), 300 nM. In addition, the IC50 with GCR1 (setting [4]) amounted to 100 nM; in the assay on GCR1 (setting [5]), 30 nM; in the assay with GCR1 (setting [8]), 100 nM; in the assay with MKN7 (setting [6]), 100 nM; with MKN7 (setting [3]) it was 100 nM; in the assay on MKN7 (setting [7]) it was 300 nM. In addition, the results for the IC50 with MKN7 (setting [4]), with MKN7 (setting [5]) and with MKN7 (setting [8]) were 100 nM, 30 nM and 100 nM, respectively. For the same compound, the “Concentration from which proliferation inhibitory effect on the amphiregulin induced proliferation was observed” value with GCIY (amphiregulin induced) is given as at least 0.03 micro M.
In the case of `CO[C@H]1C[C@@H]2CC[C@@H](C)[C@@](O)(O2)C(=O)C(=O)N2CCCC[C@H]2C(=O)O[C@H]([C@H](C)C[C@@H]2CC[C@@H](OCCO)[C@H](OC)C2)CC(=O)[C@H](C)/C=C(\C)[C@@H](O)[C@@H](OC)C(=O)[C@H](C)C[C@H](C)/C=C/C=C/C=C/1C` [everolimus], the “Survival time as compared with the control group” value in the assay with NUGC4 cells is listed as “prolonged survival times”.
Take `O=C(NC[C@H](O)CO)c1ccncc1Nc1ccc(I)cc1F` [pimasertib]: in the assay with MKN7 (MKN7, rapamycin 1 micro M), the “Proliferation inhibitory effect of combined use of pimasertib and rapamycin” value is given as “no combined effect was exhibited”.
In the case of AZD5363, in the assay on NUGC4 [1] (HGF induced), the “Inhibitory effect on the HGF induced cell proliferation” value is given as “no inhibitory effect was exhibited except for a high concentration of 10 micro M”. Moreover, the “Inhibitory effect on the amphiregulin induced cell proliferation” value in the assay with NUGC4 [1] (amphiregulin induced) is reported as “a slight inhibitory effect was exhibited at a high concentration of 1 micro M or more”. Besides, the “Inhibitory effect on HGF induced, amphiregulin induced and base line cell proliferation” value in the assay with NUGC4 [1] is on record as “even lower than the inhibitory effect of everolimus”. Moreover, in the assay with NUGC4 [1] (without HGF and AP), the “Inhibitory effect on the base line cell proliferation” value is listed as “No inhibitory effect was exhibited”.
